Common to all, as to type: biochemical
For one experiment, the target named is CDK2/Cyclin A2 (Homo sapiens (Human), UniProt P24941). Description: Kinase activity assay (Caliper Mobility Shift Assay), CDK2/Cyclin A2. On the procedure: (§1) The inhibitory effect of compounds against the kinase CDK4/cyclin D3 was detected by Caliper Mobility Shift Assay method. The final concentration of the compounds to be tested was set at 10 concentrations starting from 1 uM by 3-fold serial dilution. 5 μL of compounds at 5-fold final concentration and 10 μL of CDK4/cyclin D3 kinase solution at a final concentration of 10 nM was added to a 384-well reaction plate, respectively. The plate was pre-incubated for 10 min at room temperature (with negative control wells containing 10 uL of kinase buffer and 5 uL of 5% DMSO; positive control wells containing 10 μL of kinase solution and 5 uL of 5% DMSO). The reaction was initiated by adding 10 μL of ATP at a final concentration of 250 uM and the corresponding substrate peptide mixture at room temperature for 150 minutes. 30 uL of stop detection solution containing EDTA was added to stop the kinase reaction. Caliper EZ Reader was used to read the conversion rate. Conversion inhibition rate %=(average conversion rate of positive control %−conversion rate of sample %)/(average conversion rate of positive control %−average conversion rate of negative control %). wherein: negative control wells represent the conversion rate readings of wells without enzymatic activity; positive control wells represent conversion readings for wells with no compound inhibition. The log(inhibitor) vs. response—Variable slope of the analysis software GraphPad Prism 5 was used with log concentration value as the X-axis and the percent inhibition rate as the Y-axis to fit the dose-response curve, the IC50 value of each compound on the enzyme activity was thus obtained. Calculation formula: Y=Bottom+(Top−Bottom)/(1+10^((Log IC50−X)*HillSlope)).
(§2) The IC50 values and inhibitory activities of compounds of the present disclosure on CDK6/Cyclin D3, CDK2/Cyclin A2, and CDK9/cyclin T1 were tested in a similar manner.

The next experiment addresses CDK4/cyclin D3 (Homo sapiens (Human), UniProt P11802). Description: Kinase activity assay (Caliper Mobility Shift Assay), CDK4/cyclin D3. The following applies: 10 nM kinase, 250 uM ATP. On the procedure: as §1
The target in a further experiment is CDK6/Cyclin D3 (Homo sapiens (Human), UniProt Q00534). Description: Kinase activity assay (Caliper Mobility Shift Assay), CDK6/Cyclin D3. On the procedure: as §1, §2
Sequence of CDK6/Cyclin D3 (Q00534 whole entry, species assumed): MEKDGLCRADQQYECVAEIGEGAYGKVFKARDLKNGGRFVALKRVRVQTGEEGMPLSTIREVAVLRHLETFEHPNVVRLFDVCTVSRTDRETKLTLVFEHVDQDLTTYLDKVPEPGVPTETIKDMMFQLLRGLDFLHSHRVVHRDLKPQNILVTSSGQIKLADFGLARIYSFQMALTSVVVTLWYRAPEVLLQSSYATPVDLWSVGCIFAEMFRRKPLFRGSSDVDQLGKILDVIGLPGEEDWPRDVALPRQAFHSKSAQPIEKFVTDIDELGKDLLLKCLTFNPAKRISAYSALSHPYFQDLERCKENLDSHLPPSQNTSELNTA
Sequence of CDK6/Cyclin D3 (P30281 whole entry partner, species assumed): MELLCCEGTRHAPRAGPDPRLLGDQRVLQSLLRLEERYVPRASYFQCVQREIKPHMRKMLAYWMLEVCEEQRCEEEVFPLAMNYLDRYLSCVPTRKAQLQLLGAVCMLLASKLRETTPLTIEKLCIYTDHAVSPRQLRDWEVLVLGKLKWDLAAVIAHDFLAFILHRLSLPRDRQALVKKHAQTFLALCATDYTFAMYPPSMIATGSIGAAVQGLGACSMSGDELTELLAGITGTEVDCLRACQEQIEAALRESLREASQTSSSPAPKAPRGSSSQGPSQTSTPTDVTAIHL

From US20230416271A1, “HETEROARYLQUINAZOLINE COMPOUNDS AS PROTEIN KINASE INHIBITORS” (CHENGDU CYNOGEN BIO-PHARMACEUTICAL TECHNOLOGY CO., LTD., priority 2020, published 2023) come the findings set out here.

Structures are written as SMILES. A value given as a limit tells only on which side of the number the result lay.

Sequence of CDK4/cyclin D3 (P11802 whole entry, species assumed): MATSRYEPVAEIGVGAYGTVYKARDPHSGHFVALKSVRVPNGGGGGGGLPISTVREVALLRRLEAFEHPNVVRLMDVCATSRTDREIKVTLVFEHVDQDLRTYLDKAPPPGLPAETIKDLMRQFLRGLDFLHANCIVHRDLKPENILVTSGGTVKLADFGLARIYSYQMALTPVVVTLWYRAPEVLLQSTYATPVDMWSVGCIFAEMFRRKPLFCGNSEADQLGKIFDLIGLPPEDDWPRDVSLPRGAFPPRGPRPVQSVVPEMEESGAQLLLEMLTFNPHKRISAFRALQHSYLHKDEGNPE
Sequence of CDK4/cyclin D3 (P30281 whole entry partner, species assumed): as the sequence (P30281 whole entry partner, species assumed) above

Broadly, the IC50 is the concentration needed to halve the response being measured. Take `CC(C)c1noc2ccc3cnc(N[C@H]4CC[C@H](Nc5ncccn5)CC4)nc3c12` [I.3, (1R,4R)-N^1-(9-isopropylisoxazolo[5,4-h]quinazolin-2-yl)-N^4-(pyrimidin-2-yl)cyclohexane-1,4-diamine]: the figures for the IC50 at CDK2/Cyclin A2, at CDK4/cyclin D3 and on CDK6/Cyclin D3 were 258 nM, 26 nM and 38 nM, respectively.

Take `CC(C)c1noc2ccc3cnc(NC4CCNCC4)nc3c12` [I.4, 9-isopropyl-N-(piperidin-4-yl)isoxazolo[5,4-h]quinazolin-2-amine]: the IC50 was determined as 249 nM on CDK2/Cyclin A2, 47 nM on CDK4/cyclin D3 and 68 nM at CDK6/Cyclin D3.

In the case of `CC(C)c1noc2ccc3cnc(NC4CCN(S(C)(=O)=O)CC4)nc3c12` [I.5, 9-isopropyl-N-(1-(methylsulfonyl)piperidin-4-yl)isoxazolo[5,4-h]quinazolin-2-amine], the IC50 amounted to 1 nM at CDK2/Cyclin A2, 10 nM on CDK4/cyclin D3 and 24 nM on CDK6/Cyclin D3.

Regarding `CC(C)c1noc2c(F)cc3cnc(NC4CCN(S(C)(=O)=O)CC4)nc3c12` [I.6, 6-fluoro-9-isopropyl-N-(1-(methylsulfonyl)piperidin-4-yl)isoxazolo[5,4-h]quinazolin-2-amine], the IC50 on CDK2/Cyclin A2 was determined as 1 nM; at CDK4/cyclin D3, 5 nM; at CDK6/Cyclin D3, 12 nM.

As to `CC(C)c1noc2c(Cl)cc3cnc(NC4CCN(S(C)(=O)=O)CC4)nc3c12` [I.7, 6-chloro-9-isopropyl-N-(1-(methylsulfonyl)piperidin-4-yl)isoxazolo[5,4-h]quinazolin-2-amine], the IC50 at CDK2/Cyclin A2 was 8 nM; on CDK4/cyclin D3, 7 nM; on CDK6/Cyclin D3 it was 3 nM.

Turning to `CC(C)c1noc2c(Br)cc3cnc(NC4CCN(S(C)(=O)=O)CC4)nc3c12` [I.8, 6-bromo-9-isopropyl-N-(1-(methylsulfonyl)piperidin-4-yl)isoxazolo[5,4-h]quinazolin-2-amine], the IC50 at CDK2/Cyclin A2 amounted to 9 nM; on CDK4/cyclin D3 it was 6 nM; at CDK6/Cyclin D3 it was 3 nM.

For the compound `CC(C)c1noc2c(C(F)F)cc3cnc(NC4CCN(S(C)(=O)=O)CC4)nc3c12` [I.9, 6-(difluoromethyl)-9-isopropyl-N-(1-(methylsulfonyl)piperidin-4-yl)isoxazolo[5,4-h]quinazolin-2-amine], the IC50 on CDK2/Cyclin A2 was found to be 5 nM; at CDK4/cyclin D3, 6 nM; at CDK6/Cyclin D3, 7 nM.

Consider `CC(C)c1noc2c(CO)cc3cnc(NC4CCN(S(C)(=O)=O)CC4)nc3c12` [I.10, (9-isopropyl-2-((1-(methylsulfonyl)piperidin-4-yl)amino)isoxazolo[5,4-h]quinazolin-6-yl)methanol], for which the values for the IC50 at CDK2/Cyclin A2, at CDK4/cyclin D3 and at CDK6/Cyclin D3 were 49 nM, 72 nM and 71 nM, respectively.

Turning to `[2H]c1cc2cnc(NC3CCN(S(C)(=O)=O)CC3)nc2c2c(C(C)C)noc12` [I.11, 9-isopropyl-N-(1-(methylsulfonyl)piperidin-4-yl)isoxazolo[5,4-h]quinazolin-6-d-2-amine], the IC50 at CDK2/Cyclin A2 stood at 1 nM; on CDK4/cyclin D3 it was 10 nM; on CDK6/Cyclin D3, 24 nM.

Take `Cc1cc2cnc(NC3CCN(S(C)(=O)=O)CC3)nc2c2c(C(C)C)noc12` [I.12, 9-isopropyl-6-methyl-N-(1-(methylsulfonyl)piperidin-4-yl)isoxazolo[5,4-h]quinazolin-2-amine]: the IC50 is 1 nM on CDK2/Cyclin A2, 5 nM at CDK4/cyclin D3 and 13 nM on CDK6/Cyclin D3.

As to `C[C@@]1(O)CCC[C@H]1c1noc2ccc3cnc(NC4CCN(S(C)(=O)=O)CC4)nc3c12` [I.13, (1R,2S)-1-methyl-2-(2-((1-(methylsulfonyl)piperidin-4-yl)amino)isoxazolo[5,4-h]quinazolin-9-yl)cyclopentan-1-ol], the IC50 was determined as 1 nM at CDK2/Cyclin A2, 3 nM on CDK4/cyclin D3 and 6 nM on CDK6/Cyclin D3.

Turning to `C[C@@]1(O)CCC[C@H]1c1noc2c(C(F)F)cc3cnc(NC4CCN(S(C)(=O)=O)CC4)nc3c12` [I.14, (1R,2S)-2-(6-(difluoromethyl)-2-((1-(methylsulfonyl)piperidin-4-yl)amino)isoxazolo[5,4-h]quinazolin-9-yl)-1-methylcyclopentan-1-ol], the IC50 came out at 2 nM at CDK2/Cyclin A2, 5 nM on CDK4/cyclin D3 and 8 nM on CDK6/Cyclin D3.

Take `CC(C)c1noc2c1-c1nc(NC3CCN(S(C)(=O)=O)CC3)ncc1CC2` [I.15, 9-isopropyl-N-(1-(methylsulfonyl)piperidin-4-yl)-5,6-dihydroisoxazolo[5,4-h]quinazolin-2-amine]: the IC50 at CDK2/Cyclin A2 came out at 2 nM; on CDK4/cyclin D3, 10 nM; on CDK6/Cyclin D3 it was 8 nM.

Take `CC(C)n1nnc2ccc3cnc(N[C@H]4CC[C@H](N)CC4)nc3c21` [II.1, (1R,4R)-N1-(1-isopropyl-1H-[1,2,3]triazolo[4,5-h]quinazolin-8-yl)cyclohexane-1,4-diamine]: the IC50 on CDK2/Cyclin A2, on CDK4/cyclin D3 and at CDK6/Cyclin D3 was above 500 nM throughout.

Turning to `CC(C)n1nnc2ccc3cnc(N[C@H]4CC[C@H](NC5CCNCC5)CC4)nc3c21` [II.3, (1R,4R)-N^1-(1-isopropyl-1H-[1,2,3]triazolo[4,5-h]quinazolin-8-yl)-N^4-(piperidin-4-yl)cyclohexane-1,4-diamine], the IC50 at CDK2/Cyclin A2 stood at 12 nM; at CDK4/cyclin D3, 22 nM; at CDK6/Cyclin D3 it was 26 nM.

With `COCCN[C@H]1CC[C@H](Nc2ncc3ccc4nnn(C(C)C)c4c3n2)CC1` [II.4, (1R,4R)-N^1-(1-isopropyl-1H-[1,2,3]triazolo[4,5-h]quinazolin-8-yl)-N^4-(2-methoxyethyl)cyclohexane-1,4-diamine], the IC50 on CDK2/Cyclin A2 came out at 20 nM; on CDK4/cyclin D3 it was 16 nM; on CDK6/Cyclin D3, 22 nM.

As to `CC(C)n1nnc2ccc3cnc(N[C@H]4CC[C@H](Nc5ncccn5)CC4)nc3c21` [II.5, (1R,4R)-N^1-(1-isopropyl-1H-[1,2,3]triazolo[4,5-h]quinazolin-8-yl)-N^4-(pyrimidin-2-yl)cyclohexane-1,4-diamine], the IC50 at CDK2/Cyclin A2 was 140 nM; at CDK4/cyclin D3, 22 nM; on CDK6/Cyclin D3, 34 nM.

Turning to `CC(C)n1nnc2ccc3cnc(N[C@H]4CC[C@H](N(C)C)CC4)nc3c21` [II.6, (1R,4R)-N^1-(1-isopropyl-1H-[1,2,3]triazolo[4,5-h]quinazolin-8-yl)-N^4,N^4-dimethylcyclohexane-1,4-diamine], the IC50 on CDK2/Cyclin A2 was found to be 35 nM; at CDK4/cyclin D3 it was 10 nM; at CDK6/Cyclin D3 it was 12 nM.

`CC(C)n1nnc2ccc3cnc(N[C@H]4CC[C@H](N5CCN(C6CCCC6)CC5)CC4)nc3c21` [II.7, N-((1R,4R)-4-(4-cyclopentylpiperazin-1-yl)cyclohexyl)-1-isopropyl-1H-[1,2,3]triazolo[4,5-h]quinazolin-8-amine]: the IC50 was 465 nM at CDK2/Cyclin A2, 40 nM at CDK4/cyclin D3 and 26 nM on CDK6/Cyclin D3.

In the case of `CC(C)n1nnc2ccc3cnc(N[C@H]4CC[C@H](N5CCN(C(=O)C6CC6)CC5)CC4)nc3c21` [II.9, Cyclopropyl(4-((1R,4R)-4-((1-isopropyl-1H-[1,2,3]triazolo [4,5-h]quinazolin-8-yl)amino)cyclohexyl)piperazin-1-yl) ketone], the IC50 was found to be 356 nM on CDK2/Cyclin A2, 26 nM at CDK4/cyclin D3 and 35 nM on CDK6/Cyclin D3.
